From patent US20050203168A1, “Angiotensin converting enzyme inhibitor use for treatment and prevention of gastrointestinal disorders” (The Regents of the University of Michigan, priority 2004, published 2005)
“And” between values parts separate entries of the source, which are not always exact repeats. Equal entries are not always repeated.

Assays:
[1] = test system: epithelial cell (EC) apoptosis; assay: Epithelial cell apoptosis/necrosis by Annexin V / propidium iodide flow cytometry in SBS and Sham mice given ACE-I; format: in vivo, mouse; conditions: 0.6 mg/kg/day i.p., 1 week
Method: (§1) Animals: Male, 2 month old, C57BL/6J mice (Jackson Laboratories, Bar Harbor, Me.) were maintained in a 12-hour day-night rhythm at 23° C. and a relative humidity of 40%-60%. 24 hours before surgery chow was exchanged to micro-stabilized rodent liquid diet (TestDiet, Richmond, Ind.). Anesthesia was achieved using sodium pentobarbital (50 mg/kg body weight, intraperitoneally, i.p.). For some experiments B6.129P2-Ace^tm2Unc (ACE^−/−; lacking somatic ACE, generous gift from the Dr. O. Smithies, Duke University), or B6;129S6-Tnf^tm1Gkl (TNF-α-knockout mice, Jackson Labs) were used. Studies conformed, and were approved by the University Committee on Use and Care of Animals at the University of Michigan.
(§2) Short Bowel Syndrome Model: A 70% mid-small bowel resection was performed (i.e. bowel between 3.5 cm distal to the ligament of Treitz and 3.5 cm proximal to the ileocecal valve), followed by an end-to-end jejuno-ileal anastomosis with 7-0 monofilament, absorbable suture. Postoperatively a subcutaneous bolus of 3 ml 0.9% saline solution was given to maintain hydration status.
(§3) Sham operation: Mid-small bowel was transsected and re-anastomosed without bowel-resection.
Annexin V staining: Apoptosis was determined by flow cytometry based on the cell surface expression of phosphatidylserine using Annexin V staining (BD PharMingen, San Diego, Calif.). Propidium iodide was utilized to simultaneously monitor cell necrosis. Flow cytometry was performed by using standard techniques. Separation of EC from IEL was done by forward- and side-scatter gating characteristics. Further confirmation of EC and IEL purity was performed with specific staining of EC with antibody generated by a hybridoma G8.8 and a pan-lymphoid antibody (anti-CD45, PharMingen, San Diego, Calif.): Purity exceeded >98%.
Mucosal cell isolation: Isolation of mucosal cells was performed using standard protocols. […]
(§4) To further understand the relevance of ACE expression on EC apoptosis, ACE-inhibition was used. […] After 1 week, mice were killed, EC apoptotic rates assessed, and IEL mRNA and protein isolated.

[2] = test system: epithelial cell (EC) apoptosis; assay: Epithelial cell apoptosis by TUNEL staining in SBS and Sham mice given ACE-I; format: in vivo, mouse; conditions: for EC Apoptosis (TUNEL analysis): 0.6 mg/kg/day i.p. 7 days
Method: as §1, §2, §3
TUNEL staining: Paraffin-embedded tissue was assayed with TUNEL (Terminal deoxynucleotidyl transferase Biotin-dUTP Nick End Labeling) staining, according to slight modification of manufacturer's instructions (ApopTag InSitu Apoptosis Detection Kit, Serological Corporation, Norcross, Ga.): slides were incubated with only ⅓ of the recommended concentration of TdT enzyme, in order to avoid over-staining. Apoptosis rate (percent of EC showing apoptosis) was assessed with TUNEL staining and by morphological criteria (nuclear margination, chromatin and cytoplasmic condensation, shrinkage from neighboring cells, and formation of apoptotic bodies with nuclear and cytoplasmic fragmentation). Each assessment of apoptosis consists of the mean of 8 different crypt-villus-complexes.
(§5) To further understand the relevance of ACE expression on EC apoptosis, ACE-inhibition was used. ACE-I (enalaprilat, 0.6 mg/kg/day i.p.) was given to both SBS (SBS+ACE-I), and sham operated (Sham+ACE-I) mice over a 7 day period, starting on the day after surgery. This latter group was studied as an additional control to assess the effects of ACE-I in the absence of a SBS. After 1 week, mice were killed, EC apoptotic rates assessed, and IEL mRNA and protein isolated.

[3] = test system: SBS mice; assay: Histology (villus height, crypt depth) of mid-small bowel in SBS and Sham mice given ACE-I; format: in vivo, mouse; conditions: for Crypt depth / Villus height: 0.6 mg/kg/day i.p., 1 week postoperatively, 0.6 mg/kg/day
Method: as §1, §2, §3
Histology: A 0.5 cm segment of mid-small bowel was fixed in 10% formaldehyde, and processed for hematoxylin and eosin staining. Villus height and crypt depth were measured using a calibrated micrometer. Each measurement consisted of a mean of 16 different low power fields.
as §5

[4] = test system: IEL ACE mRNA; assay: IEL ACE mRNA by real time PCR in SBS and Sham mice given ACE-I; format: in vivo, mouse; conditions: enalaprilat 0.6 mg/kg/day i.p. 7 days, ratio ACE-cDNA copies over β-actin-cDNA copies
Method: as §2, §3
IEL purification: Isolation of purified IEL from EC was performed by direct magnetic separation. Magnetic beads conjugated with antibody to CD45 (pan-lymphoid marker) were used to segregate IEL from EC (BioMag SelectaPure Anti-Mouse CD 45R Antibody Particles, Polyscience Inc., Warrington, Pa.). Magnetic separation was performed twice to further deplete EC. […]
Real time PCR: Real-time PCR was run to better quantify actual changes in ACE expression. cDNA was also used for real time PCR. The same primers for ACE and β-actin were used as for conventional PCR, SYBR Green I was utilized for fluorescence. […] Ct- values of ACE and β-actin were converted to numbers of cDNA copies, and results expressed as the ratio of ACE over β-actin expression.
as §4

[5] = test system: IEL ACE protein; assay: IEL ACE protein by immunoblot in SBS and Sham mice given ACE-I; format: in vivo, mouse; conditions: 0.6 mg/kg/day i.p. 7 days, ratio of ACE over β-actin protein
Method: as §2, §3
IEL purification: Isolation of purified IEL from EC was performed by direct magnetic separation. Magnetic beads conjugated with antibody to CD45 (pan-lymphoid marker) were used to segregate IEL from EC (BioMag SelectaPure Anti-Mouse CD 45R Antibody Particles, Polyscience Inc., Warrington, Pa.). […]
Immunoblot analysis: Protein was extracted from isolated IEL and immunoblots performed by using a Bio-Rad protein assay kit (Bio-Rad Laboratories, Hercules, Calif.), with standard methods. […] Expression for β-actin was determined in the same fashion by re-probing membranes with purified anti-mouse β-actin (1:12000, Sigma-Aldrich, St. Louis, Mo.). Results are expressed as the ratio of ACE over β-actin protein expression.
as §4

[6] = test system: IEL TNF-α mRNA; assay: IEL TNF-α mRNA by RT-PCR in SBS and Sham mice given ACE-I; format: in vivo, mouse; conditions: for IEL TNF-α mRNA: 0.6 mg/kg/day i.p. 7 days, ratio over β-actin mRNA
Method: as §2, §3
IEL purification: Isolation of purified IEL from EC was performed by direct magnetic separation. Magnetic beads conjugated with antibody to CD45 (pan-lymphoid marker) were used to segregate IEL from EC (BioMag SelectaPure Anti-Mouse CD 45R Antibody Particles, Polyscience Inc., Warrington, Pa.). Magnetic separation was performed twice to further deplete EC. Final IEL purity was greater than 99% by flow cytometry.
Isolation of total RNA: A guanidine isothiocyanate/chloroform extraction method was performed using Trizol (Gibco BRL, Gaithersburg, Md.) according to manufacturer's directions.
Reverse transcriptase polymerase chain reaction (RT-PCR): mRNA (poly-A positive) was reversed transcribed into cDNA following a standard protocol. Specific primers for selected gene sequences were designed. PCR and gel were run under standard conditions. To ensure that DNA product was generated at the exponential portion of the product curve, the following cycle numbers were used: 28 cycles for ACE; 32 cycles for Rap2 interacting protein and TNF-α; and 34 cycles for lipocalin 2, amphiregulin, leucine-rich-α2-glycoprotein, and angiotensin II receptors. Gel bands were analyzed by DNA sequencing to ensure the correct product. Kodak EDAS System (Rochester, N.Y.) was used for imaging and quantification. Results were expressed as the ratio of the investigated mRNA over the β-actin mRNA expression.
as §4

[7] = test system: DSS-induced colitis; assay: DSS-induced colitis mouse model; format: in vivo
Method: Male C57BL/6 specific-pathogen-free 2-month-old mice were kept in a 12-hour day/night environment maintained at 23° C. and a relative humidity of 40-60%. All mice drank 2.5% (w/v) DSS in water for 7 days followed by one day of plain water, while being fed normal mouse chow. Mice either received daily enalaprilat injection (0.015 mg/day, injection volume 0.5 ml, intraperitoneal) (n=6, “ACE-I”) or daily normal saline injection 0.5 ml (n=6, “Saline”). Body weight and hemoccult stool reaction were recorded. After the eight days of treatment, mice were euthanized with CO2, and colonic samples were immediately taken for histology and mucosal RNA extraction. Distal 1-cm colonic segments were excised, opened longitudinally, and fixed in 10% neutral buffered formalin. The remainder of the colon, including the cecum, was washed, cut into pieces, and mixed gently at 37° C. in EDTA/dithiothreitol buffer. The resulting mixture of epithelial cells and intraepithelial lymphocytes was then filtered through nylon wool and pelleted by centrifugation. Total RNA of the cell pellet was obtained using TRIZOL reagent and chloroform-isopropanol-ethanol extraction. Reverse transcription of RNA was done in the presence of RNAse inhibitor. RT product was then amplified with forward and reverse primers specific for ACE, TNF-α, and beta-actin, using real-time semiquantitative PCR. PCR results were analyzed by expressing ACE and TNF-α levels as a ratio to beta-actin levels, and were compared using a 2-tailed students' T test. Histologic grading of colitis was done by blinded observers using a standard scale for colitis severity. Histologic scores, as well as body weights and hemoccult results, were compared between groups using a 2-tailed homoscedastic T test.

[8] = ACE-I administration to SBS mice

## C[C@H](N[C@@H](CCc1ccccc1)C(=O)O)C(=O)N1CCC[C@H]1C(=O)O [ACE-I, enalaprilat]
[1]; SBS + ACE-I mice
  EC necrosis (propidium iodide): 5.2±2.6%
[1]; Sham + ACE-I mice
  EC necrosis (propidium iodide): 5.2±2.6%
[1]; Sham + ACE-I mice, flow cytometry
  EC apoptosis (Annexin V staining): 16.9±8.8%
[2]; SBS + ACE-I group
  Decline of apoptotic rate (TUNEL) compared to untreated SBS mice: 58%
[2]; SBS + ACE-I mice
  EC Apoptosis (TUNEL analysis): 1.8 ± 0.5%
[2]; Sham + ACE-I group
  Decrease of EC apoptosis (TUNEL) compared to untreated Sham mice: 48%
[2]; Sham + ACE-I mice
  EC Apoptosis (TUNEL analysis): 1.9 ± 0.4 %
[2]; after ACE-I administration, untreated SBS and Sham: crypts and lower villi
  Location of apoptotic cells (TUNEL): confined to the crypts
[3]; [8]
  Change in crypt depth compared to SBS mice: significant (P=0.02), additional increase in crypt depth
  Change in villus height compared to SBS mice: unchanged
[3]; SBS + ACE-I mice
  Crypt depth: 145±22 μm and 145 ± 22° μm
  Villus height: 552±56 μm
[3]; Sham + ACE-I mice
  Alterations in histological features: no significant alterations
  Crypt depth: 87±6 μm
  Villus height: 340±20 μm
[4]; SBS + ACE-I mice
  IEL ACE mRNA: 0.63 ± 0.25
[4]; Sham + ACE-I mice
  IEL ACE mRNA: 0.66 ± 0.22
[5]; SBS + ACE-I mice
  IEL ACE protein: 0.14 ± 0.03
[5]; Sham + ACE-I mice
  IEL ACE protein: 0.13 ± 0.01
[6]; SBS + ACE-I mice
  IEL TNF-α mRNA: 0.5 ± 0.07
[6]; Sham + ACE-I mice
  IEL TNF-α mRNA: 0.37 ± 0.07
[6]; mice with massive small bowel resection administered ACE-I
  Expression of TNF-α (FIG. 4): decreased expression of TNF-α
[7]; DSS + ACE-I, colonic mucosal ACE as a ratio to beta-actin levels
  ACE levels (mRNA): 0.08 ± 0.13
[7]; DSS + ACE-I, enalaprilat 0.015 mg/day i.p. daily
  Hemocult onset: 4.8 ± 0.8 days
[7]; DSS + ACE-I, enalaprilat 0.015 mg/day i.p. daily, 2.5% DSS 7 days
  Body Weight Loss: 16.6 ±+2.7%
[7]; DSS + ACE-I, enalaprilat 0.015 mg/day i.p. daily, after eight days
  Histologic Grade (histologic colitis score): 11.8 ± 1.5
[7]; DSS colitis, daily enalaprilat injection, saline controls: essentially complete loss of crypts
  Colon histology (FIG. 5): significant areas retaining colonic crypts as well as surface epithelial cells
[7]; compared to mice treated only with saline injection (FIG. 6)
  Time course of development of heme-positive stools: significantly delayed
